The record followed here is US7507748B2, “Substituted aryl-amine derivatives and methods of use” (Amgen Inc., priority 2004, dated 2009).

In this assay the test system is Human Umbilical Vein Endothelial cells. The assay is described as follows: VEGF-stimulated HUVEC proliferation assay. The class given is cell-based. The settings on record: 72 h, CyQuant, read-out: inhibited VEGF-stimulated HUVEC proliferation at a level. The protocol:
Human Umbilical Vein Endothelial cells are purchased from Clonetics, Inc., as cryopreserved cells harvested from a pool of donors. These cells, at passage 1, are thawed and expanded in EBM-2 complete medium, until passage 2 or 3. The cells are trypsinized, washed in DMEM+10% FBS+antibiotics, and spun at 1000 rpm for 10 min. Prior to centrifugation of the cells, a small amount is collected for a cell count. After centrifugation, the medium is discarded, and the cells are resuspended in the appropriate volume of DMEM+10% FBS+antibiotics to achieve a concentration of 3×10^5 cells/mL. Another cell count is performed to confirm the cell concentration. The cells are diluted to 3×10^4 cells/mL in DMEM+10% FBS+antibiotics, and 100 μL of cells are added to a 96-well plate. The cells are incubated at 37° C. for 22 h.
Prior to the completion of the incubation period, compound dilutions are prepared. Five-point, five-fold serial dilutions are prepared in DMSO, at concentrations 400-fold greater than the final concentrations desired. 2.5 μL of each compound dilution are diluted further in a total of 1 mL DMEM+10% FBS+antibiotics (400× dilution). Medium containing 0.25% DMSO is also prepared for the 0 μM compound sample. At the 22-hour timepoint, the medium is removed from the cells, and 100 μL of each compound dilution is added. The cells are incubated at 37° C. for 2-3 h.
During the compound pre-incubation period, the growth factors are diluted to the appropriate concentrations. Solutions of DMEM+10% FBS+antibiotics, containing either VEGF or bFGF at the following concentrations: 50, 10, 2, 0.4, 0.08, and 0 ng/mL are prepared. For the compound-treated cells, solutions of VEGF at 550 ng/mL or bFGF at 220 ng/mL for 50 ng/mL or 20 ng/mL final concentrations, respectively, are prepared since 10 μL of each will be added to the cells (110 μL final volume). At the appropriate time after adding the compounds, the growth factors are added. VEGF is added to one set of plates, while bFGF is added to another set of plates. For the growth factor control curves, the media on wells B4-G6 of plates 1 and 2 are replaced with media containing VEGF or bFGF at the varying concentrations (50-0 ng/mL). The cells are incubated at 37° C. for an additional 72 h.
At the completion of the 72 h incubation period, the medium is removed, and the cells are washed twice with PBS. After the second wash with PBS, the plates are tapped gently to remove excess PBS, and the cells are placed at −70° C. for at least 30 min. The cells are thawed and analyzed using the CyQuant fluorescent dye (Molecular Probes C-7026), following the manufacturer's recommendations. The plates are read on a Victor/Wallac 1420 workstation at 485 nm/530 nm (excitation/emission). Raw data are collected and analyzed using a 4-parameter fit equation in XLFit. IC50 values are then determined.

Each structure is given as a SMILES string. A value given as a limit tells only on which side of the number the result lay.

Regarding `O=C(Nc1ccc(C(O)(C(F)(F)F)C(F)(F)F)cc1)c1cccnc1Nc1ccc2ccncc2c1` [Example 43, 2-(Isoquinolin-7-ylamino)-N-[4-(2,2,2-trifluoro-1-hydroxy-1-trifluoromethyl-ethyl)-phenyl]-nicotinamide], the IC50 was under 1 µM.

For the compound `CC(C)c1ccc(NC(=O)c2cccnc2Nc2ccc3ccncc3c2)cc1` [Example 44, N-(4-Isopropyl-phenyl)-2-(isoquinolin-7-ylamino)-nicotinamide], the IC50 was under 1 µM.

As for `O=C(Nc1ccc(N2CCC2)nc1)c1cccnc1Nc1ccc2ccncc2c1` [Example 45, N-(6-Azetidin-1-yl-pyridin-3-yl)-2-(isoquinolin-7-ylamino)-nicotinamide], the IC50 was under 1 µM.

On to `CCC(C)(C)c1ccc(NC(=O)c2cccnc2Nc2ccc3ccncc3c2)cc1` [Example 46, N-(4-(1,1-Dimethyl-propyl)-phenyl)-2-(isoquinolin-7-ylamino)-nicotinamide], for which the IC50 was under 1 µM.

Turning to `O=C(Nc1ccc(N2CCC2)cn1)c1cccnc1Nc1ccc2ccncc2c1` [Example 47, N-(5-Azetidin-1-yl-pyridin-2-yl)-2-(isoquinolin-7-ylamino)-nicotinamide], the IC50 was under 1 µM.

In the case of `Cc1cc(NC(=O)c2cccnc2Nc2ccc3ccncc3c2)ccc1C(F)(F)C(F)(F)F` [Example 48, 2-(Isoquinolin-7-ylamino)-N-(3-methyl-4-pentafluoroethyl-phenyl)-nicotinamide], the IC50 is under 1 µM.

Turning to `Cc1cc(NC(=O)c2cccnc2Nc2ccc3ccncc3c2)ccc1C(C)C` [Example 49, N-(4-Isopropyl-3-methyl-phenyl)-2-(isoquinolin-7-ylamino)-nicotinamide], the IC50 is under 1 µM.

For the compound `CC(C)(C)c1cc(NC(=O)c2cccnc2Nc2ccc3ncncc3c2)on1` [Example 50, N-(3-tert-Butyl-isoxazol-5-yl)-2-(quinazolin-6-ylamino)-nicotinamide], the IC50 was under 1 µM.

For `CC1(C)CNCc2cc(NC(=O)c3cccnc3Nc3ccc4ncncc4c3)ccc21` [Example 51, N-(4,4-Dimethyl-1,2,3,4-tetrahydro-isoquinolin-7-yl)-2-(quinazolin-6-ylamino)-nicotinamide], the IC50 was under 1 µM.

As to `CC1(C)CC(=O)Nc2cc(NC(=O)c3cccnc3Nc3ccc4ccncc4c3)ccc21` [Example 54, N-(4,4-Dimethyl-2-oxo-1,2,3,4-tetrahydro-quinolin-7-yl)-2-(isoquinolin-7-ylamino)-nicotinamide], the IC50 was under 1 µM.

As for `O=C1CSc2ccc(NC(=O)c3cccnc3Nc3ccc4ccncc4c3)cc2N1` [Example 55, 2-(isoquinolin-7-ylamino)-N-(3-oxo-3,4-dihydro-2H-1,4-benzothiazin-6-yl)nicotinamide], the IC50 is under 1 µM.

Consider `CC(C)(C)c1ccc(NC(=O)c2cccnc2Nc2ccc3ncncc3c2)cc1` [Example 56, N-(4-tert-Butyl-phenyl)-2-(quinazolin-6-ylamino)-nicotinamide], for which the IC50 is under 1 µM.

On to `CC1(C)CCNc2cc(NC(=O)c3cccnc3Nc3ccc4ncncc4c3)ccc21` [Example 57, N-(4,4-Dimethyl-1,2,3,4-tetrahydro-quinolin-7-yl)-2-(quinazolin-6-ylamino)-nicotinamide], for which the IC50 is under 1 µM.

As for `CC1(C)CC(=O)Nc2nc(NC(=O)c3cccnc3Nc3ccc4ccncc4c3)ccc21` [Example 58, N-(5,5-dimethyl-7-oxo-5,6,7,8-tetrahydro-1,8-naphthyridin-2-yl)-2-(isoquinolin-7-ylamino)nicotinamide], the IC50 was under 1 µM.

`CC1(C)CC(=O)Nc2nc(NC(=O)c3cccnc3Nc3ccc4ncncc4c3)ccc21` [Example 59, N-(5,5-dimethyl-7-oxo-5,6,7,8-tetrahydro-1,8-naphthyridin-2-yl)-2-(quinazolin-6-ylamino)nicotinamide]: the IC50 was under 1 µM.

Take `Cc1ccc(NC(=O)c2cccnc2Nc2ccc3ccncc3c2)cc1Cl` [Example 60, N-(3-chloro-4-methylphenyl)-2-(isoquinolin-7-ylamino)nicotinamide]: the IC50 is under 1 µM.

`O=C(Nc1ccc(OC(F)(F)F)cc1)c1cccnc1Nc1ccc2ccncc2c1` [Example 61, 2-(isoquinolin-7-ylamino)-N-(4-(trifluoromethoxy)phenyl)nicotinamide]: the IC50 is under 1 µM.

Turning to `Cc1cc(NC(=O)c2cccnc2Nc2ccc3ccncc3c2)ccc1N1CCCC1` [Example 62, 2-(isoquinolin-7-ylamino)-N-(3-methyl-4-(pyrrolidin-1-yl)phenyl)nicotinamide], the IC50 was under 1 µM.

For `Cc1cc(NC(=O)c2cccnc2Nc2ccc3nc(N)ncc3c2)ccc1C(C)C` [Example 63, 2-(2-aminoquinazolin-6-ylamino)-N-(3-methyl-4-(1-methylethyl)phenyl)nicotinamide], the IC50 is under 1 µM.

Turning to `Cc1ccc(NC(=O)c2cccnc2Nc2ccc3nc(N)ncc3c2)cc1Cl` [Example 64, 2-(2-aminoquinazolin-6-ylamino)-N-(3-chloro-4-methylphenyl)nicotinamide], the IC50 was under 1 µM.

Consider `Nc1ncc2cc(Nc3ncccc3C(=O)Nc3ccc(Cl)cc3)ccc2n1` [Example 65, 2-(2-aminoquinazolin-6-ylamino)-N-(4-chlorophenyl)nicotinamide], for which the IC50 is under 1 µM.

With `CC(C)(C)c1ccc(NC(=O)c2cccnc2Nc2ccc3nc(N)nc(N)c3c2)cc1` [Example 66, 2-(2,4-diaminoquinazolin-6-ylamino)-N-(4-tert-butylphenyl)nicotinamide], the IC50 was under 1 µM.

Take `CC(C)(C)c1ccc(NC(=O)c2cccnc2Nc2cccc3cnccc23)cc1` [Example 67, N-(4-tert-Butyl-phenyl)-2-(isoquinolin-5-ylamino)-nicotinamide]: the IC50 was under 1 µM.

Consider `CN1CCCC1COc1cc(NC(=O)c2cccnc2Nc2cccc3cnccc23)cc(C(F)(F)F)c1` (centres unmarked) [Example 68, 2-(Isoquinolin-5-ylamino)-N-[3-(1-methyl-pyrrolidin-2-ylmethoxy)-5-trifluoromethyl-phenyl]-nicotinamide], for which the IC50 is under 1 µM.

Regarding `CC1(C)CNCc2cc(NC(=O)c3cccnc3Nc3cccc4cnccc34)ccc21` [Example 69, N-(4,4-Dimethyl-1,2,3,4-tetrahydro-isoquinolin-7-yl)-2-(isoquinolin-5-ylamino)-nicotinamide], the IC50 is under 1 µM.

For the compound `CC1(C)CNc2cc(NC(=O)c3cccnc3Nc3cccc4cnccc34)ccc21` [Example 70, N-(3,3-Dimethyl-2,3-dihydro-1H-indol-6-yl)-2-(isoquinolin-5-ylamino)-nicotinamide], the IC50 is under 1 µM.

On to `CC(C)(C)c1cc(NC(=O)c2cccnc2Nc2cccc3cnccc23)on1` [Example 71, N-(3-tert-butylisoxazol-5-yl)-2-(isoquinolin-5-ylamino)nicotinamide], for which the IC50 is under 1 µM.

Consider `CC(C)(C)c1ccc(NC(=O)c2cccnc2Nc2cccc3ncccc23)cc1` [Example 72, N-(4-(1,1-dimethylethyl)phenyl)-2-(5-quinolinylamino)-3-pyridinecarboxamide], for which the IC50 was under 1 µM.

Consider `CC(C)(C)OC(=O)NCC(=O)N1Cc2cc(NC(=O)c3cccnc3Nc3ccc4ccncc4c3)ccc2C(C)(C)C1` [Example 73, [2-(7-{[2-(Isoquinolin-7-ylamino)-pyridine-3-carbonyl]-amino}-4,4-dimethyl-3,4-dihydro-1H-isoquinolin-2-yl)-2-oxo-ethyl]-carbamic acid tert-butyl ester], for which the IC50 is under 1 µM.

For `CC1(C)CN(C(=O)CN)Cc2cc(NC(=O)c3cccnc3Nc3ccc4ccncc4c3)ccc21` [Example 75, N-[2-(2-Amino-acetyl)-4,4-dimethyl-1,2,3,4-tetrahydro-isoquinolin-7-yl]-2-(isoquinolin-7-ylamino)-nicotinamide], the IC50 is under 1 µM.

As for `CC(C)(C)c1ccc(NC(=O)c2ccccc2Nc2ccc3ccncc3n2)cc1` [Example 76, N-(4-tert-Butyl-phenyl)-2-([1,7]naphthyridin-2-ylamino)-benzamide], the IC50 was under 1 µM.

As to `CC1(C)CNCc2cc(NC(=O)c3ccccc3Nc3ccc4ccncc4n3)ccc21` [Example 77, N-(4,4-Dimethyl-1,2,3,4-tetrahydro-isoquinolin-7-yl)-2-([1,7]naphthyridin-2-ylamino)-benzamide], the IC50 was under 1 µM.
